We go through 9 compounds from ChEMBL document CHEMBL1201862, “PubChem BioAssay data set” (2004).

Test systems include 786-0; A549; CCRF-CEM; EKVX; HCC 2998; HCT-116; K562; LOX IMVI; Malme-3M; NCI-H226; OVCAR-4; OVCAR-8; SF-539; SK-OV-3; SNB-19; UACC-257.
What all share (assay): NCI anticancer screen, dose series, 48 h

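All cell lines were grown in 96-well plates and treated with compound for 48 hours. GI50 marks 50% less growth.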 Calls of active or inactive are those of the source. No stated cut-off is given here; in the data, active = GI50 up to about 1.1 µM and inactive = higher.

Turning to `CCCCCCCCCC1CC(=O)OC23CCCC(=O)C12O3` (stereo unspecified), the GI50 with 786-0 was > 100 µM (inactive); in the assay on A549, > 100 µM (inactive); in the assay on CCRF-CEM, > 100 µM (inactive); with EKVX it was > 100 µM (inactive); in the assay on HCC 2998, 56.8 µM (inactive); in the assay with HCT-116, > 100 µM (inactive). Further, the GI50 in the assay on K562 was 55.1 µM (inactive); in the assay with LOX IMVI it was 70.5 µM (inactive); in the assay with Malme-3M, > 100 µM (inactive); with NCI-H226, > 100 µM (inactive); in the assay on OVCAR-4 it was > 100 µM (inactive); in the assay on OVCAR-8 it was 52.1 µM (inactive). In addition, the GI50 in the assay on SF-539, in the assay on SK-OV-3, in the assay with SNB-19 and with UACC-257 was > 100 µM (inactive) throughout.

For the compound `O=S(=O)(c1ccccc1)C1CN2OC1(S(=O)(=O)c1ccccc1)CC21CCCCC1` (stereo unspecified), the GI50 in the assay with 786-0, in the assay on A549, in the assay on CCRF-CEM, in the assay with EKVX, with HCC 2998 and in the assay on HCT-116 was > 100 µM (inactive) in each case. Moreover, the GI50 in the assay on K562 was 85.9 µM (inactive); in the assay on LOX IMVI, > 100 µM (inactive); in the assay with Malme-3M it was > 100 µM (inactive); with NCI-H226 it was > 100 µM (inactive); with OVCAR-4, 37.1 µM (inactive); in the assay with OVCAR-8 it was > 100 µM (inactive). Besides, the GI50 in the assay with SF-539, in the assay with SK-OV-3, with SNB-19 and with UACC-257 was > 100 µM (inactive) throughout.

Take `O=C(Nc1cccc([N+](=O)[O-])c1)/C(=N\NC(=O)c1ccncc1)c1nc2ccc([N+](=O)[O-])cc2nc1O`: the GI50 in the assay with 786-0 was > 100 µM (inactive); in the assay with A549, 39.5 µM (inactive); with CCRF-CEM, 14.7 µM (inactive); in the assay with EKVX, 38 µM (inactive); in the assay with HCC 2998, 35.4 µM (inactive); in the assay on HCT-116 it was 84.3 µM (inactive). Also, the GI50 in the assay with K562 was 21.5 µM (inactive); with LOX IMVI, 27.6 µM (inactive); in the assay on Malme-3M it was > 100 µM (inactive); in the assay with NCI-H226, 42.4 µM (inactive); in the assay on OVCAR-4, > 100 µM (inactive); with OVCAR-8, 50.1 µM (inactive). Further, the GI50 with SF-539 is 32.8 µM (inactive); in the assay with SK-OV-3 it was > 100 µM (inactive); with SNB-19, > 100 µM (inactive); in the assay with UACC-257, 46.7 µM (inactive).

On to `Nc1ccccc1C(=O)C(Br)C(Br)c1ccc2c(c1)OCO2` (stereo unspecified), for which the GI50 in the assay with 786-0 was 31 µM (inactive); in the assay with A549 it was 20.6 µM (inactive); with CCRF-CEM it was 26 µM (inactive); in the assay on EKVX, 21.3 µM (inactive); in the assay on HCC 2998 it was 20.3 µM (inactive); in the assay with HCT-116, 16.4 µM (inactive). Besides, the GI50 with K562 was 31.1 µM (inactive); with LOX IMVI it was 14 µM (inactive); in the assay with Malme-3M, 18.4 µM (inactive); in the assay on NCI-H226, 20 µM (inactive); in the assay with OVCAR-4 it was 27.4 µM (inactive); in the assay with OVCAR-8, 27.6 µM (inactive). Besides, the GI50 with SF-539 was 18.4 µM (inactive); with SK-OV-3 it was 28.6 µM (inactive); in the assay with SNB-19, 26.1 µM (inactive); with UACC-257, 19.1 µM (inactive).

As to `CC1=C2C(=O)C(C)(C)C=C2C(=O)[C@](C)(O)C12CC2` [DEHYDROILLUDIN M], the GI50 was 0.537 µM (active) in the assay with 786-0; > 1 µM (active) in the assay with A549; > 1 µM (active) in the assay on CCRF-CEM; > 1 µM (active) in the assay on EKVX; > 0.815 µM (active) with HCC 2998; 0.265 µM (active) in the assay with HCT-116. The GI50 in the assay on K562 was > 1 µM (active); in the assay with LOX IMVI, 0.402 µM (active); with Malme-3M it was 0.634 µM (active); with NCI-H226, > 1 µM (active); in the assay on OVCAR-4, 0.766 µM (active); in the assay on OVCAR-8 it was 0.56 µM (active). The GI50 with SF-539 was > 1 µM (active); in the assay on SK-OV-3 it was > 1 µM (active); with SNB-19, > 1 µM (active); in the assay with UACC-257 it was 0.745 µM (active).

On to `COc1ccc2c(c1)CCC(OS(=O)(=O)CC13CCC(CC1=O)C3(C)C)C2=O` (stereo unspecified), for which the GI50 in the assay with 786-0 is 18.8 µM (inactive); in the assay on A549, 26.4 µM (inactive); in the assay on CCRF-CEM it was 18.8 µM (inactive); with EKVX, > 100 µM (inactive); in the assay with HCC 2998, 23 µM (inactive); in the assay on HCT-116, 24.3 µM (inactive). Further, the GI50 in the assay with K562 was 24.3 µM (inactive); with LOX IMVI, 15.6 µM (inactive); in the assay on Malme-3M, 43 µM (inactive); in the assay on NCI-H226, 29 µM (inactive); in the assay on OVCAR-4 it was 43.1 µM (inactive); in the assay with OVCAR-8, 18.7 µM (inactive). For the same compound, the GI50 with SF-539 was 21.5 µM (inactive); with SNB-19, 41.9 µM (inactive); with UACC-257 it was 37.8 µM (inactive).

`COc1cc2c(cc1OC)C(CC(=O)NN=C(C)C)NCC2` (stereo unspecified): the GI50 with 786-0, with A549, in the assay on CCRF-CEM, in the assay on EKVX, in the assay with HCC 2998 and in the assay with HCT-116 was > 100 µM (inactive) in each case. The GI50 in the assay with K562, in the assay on LOX IMVI, in the assay on Malme-3M, in the assay with NCI-H226, with OVCAR-4 and with OVCAR-8 was > 100 µM (inactive) throughout. Besides, the GI50 in the assay on SF-539, with SK-OV-3, in the assay with SNB-19 and in the assay with UACC-257 was > 100 µM (inactive) each time.

Consider `COc1ccccc1NC(=O)CC(=O)n1nc(C)c(/N=N/c2ccccc2F)c1C`, for which the GI50 was 76.6 µM (inactive) with 786-0; 98.4 µM (inactive) in the assay with A549; > 10 µM (inactive) with CCRF-CEM; > 100 µM (inactive) in the assay on EKVX; > 100 µM (inactive) in the assay on HCC 2998; > 31.6 µM (inactive) in the assay on HCT-116. Besides, the GI50 was > 31.6 µM (inactive) in the assay on K562; > 100 µM (inactive) in the assay on LOX IMVI; > 10 µM (inactive) in the assay with Malme-3M; 45.1 µM (inactive) in the assay with NCI-H226; > 100 µM (inactive) with OVCAR-4; 44.6 µM (inactive) in the assay on OVCAR-8. Also, the GI50 with SF-539 is 21.5 µM (inactive); in the assay with SK-OV-3 it was 31.3 µM (inactive); in the assay on SNB-19, > 76 µM (inactive); in the assay on UACC-257, > 100 µM (inactive).

In the case of `NC(=O)c1cccc([N+](=O)[O-])c1`, the GI50 in the assay on 786-0, with A549, with CCRF-CEM, with EKVX, with HCC 2998 and in the assay on K562 was > 100 µM (inactive) in each case. Moreover, the GI50 with LOX IMVI, in the assay with Malme-3M, in the assay on NCI-H226, in the assay on OVCAR-8, in the assay on SF-539 and in the assay on SK-OV-3 was > 100 µM (inactive) each time. Also, the GI50 in the assay on SNB-19 and with UACC-257 was > 100 µM (inactive) each time.
